Measurements as given in patent US20060270634A1, “Acetal phosphate-derived LPA mimics, PPARgamma activators, and autotaxin inhibitors” (priority 2005, published 2006).
“Also recorded” adds a separate entry of the source. Like-named read-outs stand apart in the source and are kept apart here.

Tests used:
[1] = target: LPA2 (Homo sapiens, UniProt Q9HBW0); experiment: Ca2+ transients in RH7777 cells expressing LPA2 (agonist / inhibition of LPA response); conditions: for Emax: RH7777, read-out: LPA2 (Emax); for LPA2 effect in words: *transient
Sequence of LPA2 (Q9HBW0 whole entry, species assumed): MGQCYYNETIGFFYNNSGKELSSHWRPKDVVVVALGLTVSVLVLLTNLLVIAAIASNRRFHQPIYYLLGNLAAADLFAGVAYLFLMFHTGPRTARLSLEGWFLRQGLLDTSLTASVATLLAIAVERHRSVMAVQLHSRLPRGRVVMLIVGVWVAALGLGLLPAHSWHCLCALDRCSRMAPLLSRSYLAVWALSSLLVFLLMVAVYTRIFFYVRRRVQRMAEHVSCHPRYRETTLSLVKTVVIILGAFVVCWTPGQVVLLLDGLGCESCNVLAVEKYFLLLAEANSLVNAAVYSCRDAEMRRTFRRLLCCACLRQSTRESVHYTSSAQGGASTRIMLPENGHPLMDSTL
Protocol: (§1) The biological effects of all synthesized compounds were testing using three high-throughput assays. First, intracellular calcium transients in rat hepatoma (RH777, an LPA receptor null cell) cell lines individually expressing either LPA1, LPA2, and LPA3 receptors were analyzed to evaluate compounds as agonists or antagonists.
(§2) Synthesized compounds were tested for induction and inhibition of LPA-induced calcium transients in rat hepatoma (RH7777) cell lines that stably express individual LPA1, LPA2, and LPA3 receptors as described in the literature using a FlexStation II automated fluorimeter (Molecular Devices, Sunnyvale, Calif.).
(§3) RH7777 cells, which lack LPA GPCR, were stably transfected with individual LPA1, LPA2 and LPA3 receptors and used for the in vitro screening.

[2] = target: LPA1 (Homo sapiens, UniProt Q92633); experiment: Ca2+ transients in RH7777 cells expressing LPA1 (agonist / inhibition of LPA response); conditions: for Emax: RH7777, read-out: LPA1 (Emax); for LPA1 effect in words: Tables 2, 4, 6; for EC50: read-out: LPA1 EC50
Sequence of LPA1 (Q92633 whole entry, species assumed): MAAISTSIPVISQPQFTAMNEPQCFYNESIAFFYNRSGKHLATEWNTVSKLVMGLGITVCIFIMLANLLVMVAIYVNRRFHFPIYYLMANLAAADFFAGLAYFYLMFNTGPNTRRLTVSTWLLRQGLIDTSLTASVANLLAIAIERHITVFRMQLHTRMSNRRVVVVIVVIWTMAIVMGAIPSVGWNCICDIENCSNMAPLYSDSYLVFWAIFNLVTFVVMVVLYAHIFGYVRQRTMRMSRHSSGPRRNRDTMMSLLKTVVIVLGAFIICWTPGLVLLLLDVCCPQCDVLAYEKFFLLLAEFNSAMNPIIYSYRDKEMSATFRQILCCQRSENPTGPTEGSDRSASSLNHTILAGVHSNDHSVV
Protocol: as §1, §2, §3

[3] = target: T1, LPA3 (Homo sapiens, UniProt Q9UBY5); experiment: Ca2+ transients in RH7777 cells expressing LPA3 (agonist / inhibition of LPA response); conditions: for EC50: read-out: LPA3 EC50; for IC50: read-out: LPA3 IC50; for LPA3 effect in words: Tables 2, 4, 6
T1 sequence (Q9UBY5 1-353): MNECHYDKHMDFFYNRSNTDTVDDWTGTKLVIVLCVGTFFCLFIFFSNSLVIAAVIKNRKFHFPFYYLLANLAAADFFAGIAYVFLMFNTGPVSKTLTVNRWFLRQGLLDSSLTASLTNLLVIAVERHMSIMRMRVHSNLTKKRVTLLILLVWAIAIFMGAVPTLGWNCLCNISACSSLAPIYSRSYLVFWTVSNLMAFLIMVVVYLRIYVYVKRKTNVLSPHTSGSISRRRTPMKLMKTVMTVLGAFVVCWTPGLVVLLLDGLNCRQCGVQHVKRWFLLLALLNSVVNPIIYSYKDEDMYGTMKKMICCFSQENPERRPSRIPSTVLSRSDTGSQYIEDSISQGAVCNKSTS
Protocol: as §1, §2, §3

[4] = read-out: LPA1 IC50, 200 nM LPA

## CCCCCCCC/C=C\CCCCCCC[C@@H]1OC[C@@H](COP(O)(O)=S)O1 [Analog 28]
[1]
  IC50: > 30000 nM
[1]; LPA2 (nM) EC50, Table 1
  EC50: 1710 nM

## CCCCCCCC(=O)OCC(COP(=O)(O)O)OC(=O)CCCCCCC (centres unmarked) [Cpd 2, phosphatidic acid 8:0, reference compound]
[2]
  Ki: 407 nM
[2]; LPA1 IC50, Table 5
  IC50: 692 nM

## CCCCCCCC(=O)OC[C@@H](COP(=O)(O)O)OC(=O)CCCCCCC [Cpd 7a, (2S)-PA 8:0]
[1]
  LPA2 agonist/antagonist activity in words: no effect
[2]
  LPA1 agonist/antagonist activity in words: subtype selective antagonism
[2]; read-out: LPA1 (Ki), Table 5
  Ki: 221 nM
[2]; read-out: LPA1 IC50, Table 5
  IC50: 433 nM
[3]
  LPA3 agonist/antagonist activity in words: subtype selective antagonism

## CCCCCCCC(=O)OC[C@@H](COP(O)(O)=S)OC(=O)CCCCCCC [Cpd 8a, thiophosphatidic acid 8:0]
[1]
  LPA2 agonist/antagonist activity in words: partial agonist
  Emax: 17%
[1]; read-out: LPA2 EC50, Table 5
  EC50: 7170 nM
[2]
  LPA1 agonist/antagonist activity in words: lacked LPA1/3 antagonism
[3]
  LPA3 agonist/antagonist activity in words: partial agonist
[3]; RH7777, read-out: LPA3 (Emax)
  Emax: 30%
[3]; Table 5
  EC50: 115 nM

## CCCCCCCC(=O)OC[C@H](COP(O)(O)=S)OC(=O)CCCCCCC [Cpd 8b, (2R)-TPA 8:0]
[1]
  LPA2 agonist/antagonist activity in words: partial agonist
  Emax: 58%
[1]; read-out: LPA2 EC50, Table 5
  EC50: 6330 nM
[2]
  LPA1 agonist/antagonist activity in words: more potent antagonist
[2]; read-out: LPA1 (Ki), Table 5
  Ki: 360 nM
[2]; read-out: LPA1 IC50, Table 5
  IC50: 686 nM
[3]
  selectivity for LPA3 over LPA1: 75 fold
[3]; Table 5
  IC50: 11 nM
[3]; read-out: LPA3 Ki
  Ki: 5 nM

## CCCCCCCCOC[C@@H](COP(=O)(O)O)OCCCCCCCC [Cpd 12a]
[1]
  LPA2 effect in words: Weak inhibition(?) *transient
[2]; read-out: LPA1 (Ki), Table 5
  Ki: 486 nM
[2]; [4]
  IC50: 1580 nM
[2]; read-out: LPA1 IC50, Table 5
  IC50: 1580 nM
[3]; read-out: LPA3 (Ki), Table 5
  Ki: 50 nM
[3]; 200 nM LPA
  IC50: 143 nM
[3]; Table 5
  IC50: 143 nM

## CCCCCCCCOC[C@H](COP(=O)(O)O)OCCCCCCCC [Cpd 12b, (2R)-APA 8:0]
[1]
  LPA2 effect in words: Partial agonist
[1]; LPA2 EC50, *transient
  EC50: 2530 nM
[2]
  LPA1 agonist/antagonist activity in words: agonists; also recorded: Enantiospecific activation
  Emax: 57%
  LPA1 effect in words: Partial agonist
  EC50: 3260 nM
[2]; Table 5, PA 8:0 analogs
  EC50: 3260 nM
[3]
  LPA3 agonist/antagonist activity in words: agonists; also recorded: Enantiospecific activation
  LPA3 effect in words: Full agonist
  EC50: 164 nM
[3]; RH7777, read-out: LPA3 (Emax)
  Emax: 109%
[3]; Table 5
  EC50: 164 nM

## CCCCCCCCOC[C@@H](COP(O)(O)=S)OCCCCCCCC [Cpd 13a, dialkyl thiophosphatidic acid 8:0]
[1]
  LPA2 effect in words: Weak stimulation *transient
[2]; read-out: LPA1 (Ki), Table 5
  Ki: 139 nM
[2]; [4]
  IC50: 328 nM
[2]; read-out: LPA1 IC50, Table 5
  IC50: 328 nM
[3]; read-out: LPA3 (Ki), Table 5
  Ki: 67 nM
[3]; 200 nM LPA
  IC50: 184 nM
[3]; Table 5
  IC50: 184 nM

## CCCCCCCCOC[C@H](COP(O)(O)=S)OCCCCCCCC [Cpd 13b, 2(R)-ATPA 8:0]
[1]
  LPA2 agonist/antagonist activity in words: weak and partial agonist
  LPA2 effect in words: Partial agonist
  Emax: 27%
[1]; LPA2 EC50, *transient
  EC50: 1020 nM
[2]
  LPA1 agonist/antagonist activity in words: agonists; also recorded: Enantiospecific activation
  Emax: 30%
  LPA1 effect in words: Partial agonist
  EC50: 695 nM
[2]; Table 5, PA 8:0 analogs
  EC50: 695 nM
[3]
  LPA3 agonist/antagonist activity in words: agonists; also recorded: potent LPA3 receptor subtype-selective agonist; also recorded: full agonist
  selectivity for LPA3 over LPA1: ~230 fold
  selectivity for LPA3 over LPA2: ~1900 fold
  LPA3 effect in words: Full agonist
  EC50: 3 nM
[3]; RH7777, read-out: LPA3 (Emax)
  Emax: 109%
[3]; RH7777, read-out: LPA3 Emax
  Emax: 109%
[3]; Table 5
  EC50: 3 nM
[3]; text
  EC50: 3 nM

## CCCCCCCCNC(=O)[C@H](COP(O)(O)=S)NC(=O)CCCCCCC [Cpd 20a]
[2]; read-out: LPA1 (Ki), Table 5
  Ki: 152 nM
[2]; read-out: LPA1 IC50, Table 5
  IC50: 476 nM
[3]; read-out: LPA3 (Ki), Table 5
  Ki: 117 nM
[3]; Table 5
  IC50: 251 nM

## CCCCCCCCNC(=O)[C@@H](COP(O)(O)=S)NC(=O)CCCCCCC [Cpd 20b]
[2]; read-out: LPA1 (Ki), Table 5
  Ki: 2850 nM
[2]; read-out: LPA1 IC50, Table 5
  IC50: 7390 nM
[3]; read-out: LPA3 (Ki), Table 5
  Ki: 118 nM
[3]; Table 5
  IC50: 302 nM

## CCCCCCCCc1ccc(CCCCCCC2OCC(COP(=O)(O)O)O2)cc1 (centres unmarked) [ID 14]
[2]; [4]
  IC50: 4660 nM
[3]
  LPA3 effect in words: Partial agonist

## CCCCCCCCc1ccc(CCCCCCC2OCC(COP(O)(O)=S)O2)cc1 (centres unmarked) [ID 15]
[2]
  LPA1 effect in words: Weak antagonist

## CCCCCCCC/C=C\CCCCCCCC(=O)OC[C@@H](O)COP(=O)(O)O [Oleoyl-LPA, reference compound]
[1]
  LPA2 agonist/antagonist activity in words: agonist of LPA1-3
[2]
  LPA1 agonist/antagonist activity in words: agonist of LPA1-3
[3]
  LPA3 agonist/antagonist activity in words: agonist of LPA1-3
